In patent US10723726B2, “Solid forms of (Z)-4-(5-((3-benzyl-4-oxo-2-thioxothiazolidin-5-ylidene)methyl)furan-2-yl)benzoic acid” (GB006, INC., priority 2015, dated 2020):
“Also recorded” adds a separate entry of the source. Counter-ions that a name gives are not always drawn. Like-named read-outs stand apart in the source and are kept apart here.

Tests used:
in vivo [1] = conditions: male, dog; for AUC0-t: AUC0-12 h
Procedure: The PO (2 mg/kg) dose solution of micronized LA1 was prepared in 0.1% Tween-80 0.5% (w/v) and methyl cellulose in water.
The objective of the study was to investigate the preclinical pharmacokinetic profile of LA1 (micronized powder) in Beagle dog. To delineate the plasma concentration vs. time curve and characterize the relevant pharmacokinetic parameters to generate data on the PK properties viz., bioavailability, half-life (b1/2), volume of distribution, Cmax, Tmax, AUC and elimination rate constant of LA1 in Beagle dog.
LA1 was a coarse material which was micronized using laboratory scale ball mill. […] The micronized LA1 was recovered, weighed and stored in glass container at room temperature. For intravenous drug administration, LA1 excipient compatibility assay for dosing in dogs were carried out.
In brief, a known amount of LA1 was loaded to a cylindrical capped container made of stainless steel followed by addition of stainless steel balls. The ball mills were rotated on their axis for total of 60 minutes (6 cycles X 10 minutes). The micronized LA1 was recovered, weighed and stored in glass bottle at room temperature.
Test system: Healthy Beagle dog weighing 10-12 kg (age 10 months), males were used for the study. Crossover design was adopted for the experiments wherein 02 dogs were used in the study for oral and intravenous administration. Both the animals were housed stainless steel cage provided with a hopper to hold pellet feed and a separate water hopper. Temperature and humidity was maintained at 22±3° C. and 40-70%, respectively. The illumination was controlled to give a sequence of 12 h light and 12 h dark cycle. All the animals were adapted to the experimental conditions for at least 5 days prior to dosing. All animals were provided with Pedigree™ standard pellet feed, except for 10 to 12 h before treatment and 4 h after the drug administration. Water was provided ad libidum.
Formulation and drug administration: Exactly 90 mg of the test item LA1 (micronized powder) was weighed and transferred to a mortar and briefly triturated with pestle. Small volume of vehicle [0.5% (w/v) Carboxy methyl cellulose with 0.1% Tween-80] in water was then added slowly with continuous trituration until a uniform suspension was obtained. The content was then transferred into the measuring cylinder. The mortar was rinsed till the complete transfer of test item into the measuring cylinder was ensured. The final volume was then made up to 225 mL with vehicle to get a uniform suspension with desired concentration of 0.4 mg/mL. Dosing formulations were given by oral gavage at a dose volume not exceeding 5 mL/kg.
Intravenous drug formulation: Hemolysis assay using dog whole blood was employed to assess the damage of red blood cells for selection of excipient for intravenous dosing. […] Exactly 22.5 mg of the test item (micronized powder) was weighed into a graduated tube. 2.25 mL of DMSO was added drop wise and mixed by vortex. Then, 40.50 mL of Polyethylene glycol 400 (PEG-400) was added in two to three fragments and vortex intermittently. Then 2.25 mL Ethanol was added drop wise and vortex to get clear solution. The formulation was subjected to ultra-sonication for 5 minutes.
Sample collection: Serial method was used for blood sampling. Blood samples were collected as mentioned in the study design section (7). The blood sample (−1.5 mL) was collected from saphenous vein into labeled tubes, containing 2% w/v K2EDTA solution, as an anticoagulant.

[2] = male, in vivo
Procedure: (§1) In a second experiment, the dose solution was prepared in Tween-80 (0.02%) and 0.5% methyl cellulose in Milli-Q water. IP (2 mg/kg) and IV (1 mg/kg) dose solutions were prepared in a 5% DMSO and 95% PEG-200.
(§2) The PO (2 mg/kg) dose solution was prepared in Tween-80 (0.02%) and 0.5% methyl cellulose in Milli-Q water. The IV (1 mg/kg) dose solution was prepared in a solution of 5% DMSO and 95% PEG-200.
(§3) The routes of administration were namely PO (gavage), IP (bolus) and IV (bolus through tail vein). A total of four SD male rats were used aged between 5-6 weeks. The feeding regimen included 12 h fasting and the feed was provided 2 hrs after the dosage inoculation and water was provided ad libidum. The blood collection schedule for PO/IP was at 0.25, 0.5, 1, 2, 4, 8, 10 and 24 h, and for IV it was at 0.12, 0.25, 0.5, 1, 2, 4, 8 and 24 h. For PO dosage, tween-80 (0.02%) and 0.5% methyl cellulose prepared in milli-Q water were used as vehicles; for IP and IV dosage 5% DMSO and 95% PEG-200 were used as vehicles.
(§4) Stock solution (178 μg/mL) in methanol was further diluted using methanol: water (80:20, v/v) to obtain working solutions in the range of 10.4 to 20745 ng/mL.
(§5) 50 μL of sample was aliquoted in to pre-labeled vials. To it was added 200 μL of 10% tetrahydrofuran containing IS (100 ng/mL; tolbutamide) and mixed well, vortexed for 5 min followed by centrifugation for 5 min at 14000 rpm for at 4° C. Supernatant was separated and 5 μL of same was injected on LC-MS/MS.
(§6) Data Analysis: Individual concentration-time data were analyzed using WinNonlin (Version 5.3) by non-compartmental analysis (NCA) method.
(§7) The routes of administration were namely PO (gavage) and IV (bolus through tail vein). A total of four SD male rats were used aged between 5-6 weeks. The feeding regimen included 12 h fasting and the feed was provided 2 hrs after the dosage inoculation and water was provided ad libitum. The blood collection schedule for PO was at 0.25, 0.5, 1, 2, 4, 8, 10 and 24 h, and for IV it was at 0.12, 0.25, 0.5, 1, 2, 4, 8 and 24 h. For PO dosage, tween-80 (0.02%) and 0.5% methyl cellulose prepared in milli-Q water were used as vehicles; for IV dosage 10% DMSO and 90% PEG-200 were used as vehicles.

in vivo [3] = conditions: male, Sprague-Dawley, rat
Procedure: as §1, §2, §3, §4, §5, §6, §7

[4] = Humidity stress at 40° C./75% RH; assay type: physicochemical; conditions: 5-6 days
Procedure: The larger vials were capped, sealed with Parafilm and placed inside an oven at 40° C. for up to 6 days. Salts were then removed from these conditions and changes observed (e.g. color, deliquescence etc.) before being analyzed for weight change and by XRPD. Samples were examined visually after stressing, form composition confirmed by XRPD analysis and weight change recorded (Table 7).

[5] = Aqueous solubility by equilibration, HPLC analysis; assay type: physicochemical; conditions: for Appearance / Soln pH: after slurrying in water 4-5 days; for HPLC purity (%): after slurrying in water 4-5 days (chemical stability)
Procedure: An aliquot of the UHQ water test solvent (1 mL) was added to an accurately weighed sample of the LA1 salts and agitated at ambient temperature for a period of 4 days. A sample was withdrawn, filtered through a […], and analyzed by HPLC. HPLC was used to determine aqueous equilibrium solubility at ambient temperature. […] Samples were slurried in water for 4-5 days before analysis.

[6] = test system: murine melanoma B16-F10 tumors; assay: Murine melanoma B16F10 allograft efficacy (Example 19); assay type: in vivo, C57BL/6 mice; conditions: 3 or 30 mg/kg daily for 15 days
Procedure: TUMOR CELLS. B16-F10 cells were cultured in DMEM cell culture medium supplemented with 10% FBS and 1% penicillin-streptomycin. The cells were maintained at 37° C. in […]. When the cells reached 75-80% confluence, they were harvested by trypsinization, washed, and counted. The cells were then re-suspended in serum free medium at a concentration of 0.1 million cells/75 μl.
TUMOR CELL INOCULATION. Cells were inoculated subcutaneously on the flank of black mice. Prior to inoculation, hair was trimmed and skin on the injection site (dorsal right flank) was swabbed with alcohol. Cells in serum free medium (0.1 million cells/75 μl) were mixed with Matrigel at a ratio of 3:1 and a total volume of 100 μl was injected into each animal with a 1 mL BD syringe attached to a 26 G needle.
RANDOMIZATION. Tumors were palpable around Day 7 of inoculation.
STATISTICAL CALCULATIONS. All statistical calculations were performed using Prism 5.0 (GraphPad Software Inc., USA). Comparisons of tumor size measurements during and at the termination of the study were made between the treatment groups and respective vehicle control groups using One Way ANOVA followed by Dunnett's multiple comparison tests. A p-value of less than 0.05 was considered significant.

[7] = Histopathology (Example 19); assay type: in vivo, C57BL/6 mice; conditions: also seen in one animal of the control group
Procedure: HISTOPATHOLOGY. Histopathological examination was conducted using liver, kidney, lung, spleen, heart, and stomach samples.

[8] = beagle, iv, 0.5 mg/kg, Plasma concentration
[9] = beagle, po, 0.5 mg/kg, Plasma concentration
[10] = Sprague-Dawley, rat, iv, 1 mg/kg
[11] = Sprague-Dawley, rat, po, 2 mg/kg
[12] = Sprague-Dawley, rat, ip, 2 mg/kg

SMILES: O=C(O)c1ccc(-c2ccc(/C=C3\SC(=S)N(Cc4ccccc4)C3=O)o2)cc1 [LA1 (micronized)]
- concentration at 12 h (in vivo [1]; Beagle, iv, 0.5 mg/kg, Plasma concentration): 7.93 ng/mL
- bioavailability (in vivo [1]; beagle, Absolute oral bioavailability): 50.6%
- clearance (in vivo [1]; beagle, Dog Cl (ml/min/kg)): 2.1 mL/min/kg
- bioavailability (in vivo [1]; beagle, Dog F % (absolute oral bioavailability)): 50%
- AUC0-t (in vivo [1]; beagle, iv, 0.5 mg/kg): 1330 ng·h/mL
- AUC(0-inf) (in vivo [1]; beagle, iv, 0.5 mg/kg, AUC0-inf): 1350 ng·h/mL
- AUC(0-inf) (in vivo [1]; beagle, iv, 0.5 mg/kg, AUCinf): 1350 ng·h/mL
- C0 (in vivo [1]; beagle, iv, 0.5 mg/kg, C0): 1330 ng/mL
- Cmax (in vivo [1]; beagle, iv, 0.5 mg/kg, Co/Cmax): 2040 ng/mL
- concentration at 0.05 h (in vivo [1]; [8]): 1570 ng/mL
- concentration at 0.1 h (in vivo [1]; [8]): 897 ng/mL
- concentration at 0.25 h (in vivo [1]; [8]): 717 ng/mL
- concentration at 0.5 h (in vivo [1]; [8]): 505 ng/mL
- concentration at 1 h (in vivo [1]; [8]): 405 ng/mL
- bioavailability (in vivo [1]; beagle, po, 0.5 mg/kg, Absolute Bioavailability F %): 50.6%
- concentration at 4 h (in vivo [1]; [9]): 660 ng/mL
- concentration at 6 h (in vivo [1]; [9]): 211 ng/mL
- concentration at 8 h (in vivo [1]; [9]): 118 ng/mL
- concentration at 12 h (in vivo [1]; [9]): 37.5 ng/mL
- AUC(0-inf) (in vivo [1]; beagle, po, 2 mg/kg, AUCinf): 2690 ng·h/mL
- Cmax (in vivo [1]; beagle, po, 2 mg/kg, Cmax): 685 ng/mL
- half-life (in vivo [1]; beagle, po, 2 mg/kg): 127 min
- Tmax (in vivo [1]; beagle, po, 3 mg/kg): 4 h
- AUC0-t (in vivo [1]; beagle, po, 3 mg/kg): 2570 ng·h/mL
- AUC(0-inf) (in vivo [1]; beagle, po, 3 mg/kg, AUC0-inf): 2690 ng·h/mL
- Cmax (in vivo [1]; beagle, po, 3 mg/kg, Co/Cmax): 685 ng/mL
- half-life (in vivo [1]; beagle, po, 3 mg/kg): 127 min
- Rat Cl ([2]; Sprague-Dawley): 23.4 mL/min/kg
- Vss ([2]; Sprague-Dawley, rat): 2.14 L/kg
- AUC0-t [2, 10]: 715 ng·h/mL
- AUC0-∞ [2, 10]: 729 ng·h/mL
- C0 [2, 10]: 1025 ng/mL
- MRT [2, 10]: 1.47 h
- Tlast [2, 10]: 12.0 h
- Vd [2, 10]: 2.63 L/kg
- AUC0-t [2, 11]: 319 ng·h/mL
- AUC0-∞ [2, 11]: 336 ng·h/mL
- Tlast [2, 11]: 6.50 h
- Tmax [2, 11]: 52.8 min
- AUC (in vivo [3]; po, 2 mg/kg, AUC (with PO bioavailability)): 0.76 µM·h
- AUC (in vivo [3]; po, 2 mg/kg, AUC in mM*hr): 0.76 µM·h
- MRT (in vivo [3]; po, 2 mg/kg, MRT (hr)): 2.04 h
- bioavailability (in vivo [3]; po, 2 mg/kg, Rat F %): 23%
- half-life (in vivo [3]; po, 2 mg/kg, t1/2 (hr)): 66 min

SMILES: O=C(O)c1ccc(-c2ccc(/C=C3\SC(=S)N(Cc4ccccc4)C3=O)o2)cc1 [LA1 meglumine salt]
- Weight gain (%) [4]: 1.4%
- XRPD after stressing [4]: No change
- solubility ([5]; UHQ water, thermodynamic from solid, water, ambient temperature, slurried 4-5 days, corrected for weight of counter-ion, read-out: Aq solub): 724 µg/mL
- Appearance [5]: No change
- Soln pH [5]: 8
- HPLC purity (%) [5]: 34.7%
- growth inhibition of B16-F10 tumors as compared to vehicle control [6]: 58-66%
- microscopic examination of liver tissues [7]: minimal to moderate hepatocellular necrosis in one animal
- tumor metastasis in lung tissue [7]: Tumor metastasis was observed in lung tissue from one animal
- Rat Cl ([2]; Sprague Dawley, iv, 1 mg/kg): 17.5 mL/min/kg
- Vss ([2]; Sprague Dawley, rat): 0.74 L/kg
- Rat Cl ([2]; Sprague-Dawley): 18 mL/min/kg
- Rat F % ([2]; Sprague-Dawley, ip, 2 mg/kg): 167%
- Rat Cl ([2]; Sprague-Dawley, iv, 1 mg/kg): 17.5 mL/min/kg
- Rat F % ([2]; Sprague-Dawley, po, 2 mg/kg): 37.1%
- % F (absolute IP bioavailability) ([2]; Sprague-Dawley, rat): > 100%
- F (absolute oral bioavailability) ([2]; Sprague-Dawley, rat): 37.1%
- Vss ([2]; Sprague-Dawley, rat): 0.74 L/kg
- AUC0-t [2, 12]: 3252 ng·h/mL
- AUC0-∞ [2, 12]: 3270 ng·h/mL
- Tlast [2, 12]: 17.0 h
- Tmax [2, 12]: 15 min
- AUC0-t [2, 10]: 967 ng·h/mL
- AUC0-∞ [2, 10]: 978 ng·h/mL
- C0 [2, 10]: 2142 ng/mL
- MRT [2, 10]: 0.91 h
- Tlast [2, 10]: 8.00 h
- Vd [2, 10]: 1.85 L/kg
- AUC0-t [2, 11]: 722 ng·h/mL
- AUC0-∞ [2, 11]: 726 ng·h/mL
- Tlast [2, 11]: 10.0 h
- bioavailability (in vivo [3]; F (absolute oral bioavailability)): 37%
- MRT (in vivo [3]; po, 2 mg/kg, MRT): 1.54 h
- half-life (in vivo [3]; po, 2 mg/kg, t1/2,ß): 96 min
- Tmax (in vivo [3]; po, 2 mg/kg, tmax): 30 min

SMILES: [Ca] [calcium]
- Weight gain (%) [4]: 1.7%
- XRPD after stressing [4]: More disordered
- Appearance [5]: No change
- Soln pH [5]: 7
- HPLC purity (%) [5]: 5.58%

SMILES: C1CNCCN1 [piperazine]
- Weight gain (%) [4]: −5.5%
- XRPD after stressing [4]: phase change; also recorded: New pattern (R)
- Appearance [5]: No change
- Soln pH [5]: 8
- HPLC purity (%) [5]: 5.31%

SMILES: NC(CO)(CO)CO [tromethamine]
- XRPD after stressing [4]: phase change; also recorded: New pattern (S)
- Appearance [5]: Yellow ppt seen
- Soln pH [5]: 8
- HPLC purity (%) [5]: 89.7%
- physical stability in water ([5]; slurrying 4-5 days, XRPD): not physically stable in water
